Experimental data as given in patent US11793746B2, “Intense skin hydration systems and methods” (priority 2020, dated 2023).

Experiments:
[1] = system: human skin analog, Skin^2; assay: MTT cytotoxicity assay; format: cell-based; conditions: cytotoxic = levels below 80% of untreated control
Description: Preclinical studies used a three-dimensional metabolically and mitotically active in vitro human skin analog, Skin^2™. This human skin substrate consists of neonatal foreskin fibroblasts that secrete a functionally active extracellular matrix grown on a medical-grade nylon mesh cocultured with human neonatal foreskin keratinocytes that differentiate into a multilayered epidermis.
This Example tested cellular viability and measured cell respiration in vitro in response to the application of GC-100 preparations.
The toxicity of a substance can be quantified by sustained metabolic activity of the cell in the presence of test substance. The integrity of cellular metabolism can be evaluated using the MTT Coloration Assay, which relies on the metabolism of 3-[4,5-dimethylthiazol-2-yl]-2,5-diphenyl tetrazolium bromide by succinate dehydrogenase of the citric acid cycle. Since the metabolism of MTT is dependent on mitochondrial activity, the amount of metabolite produced can be correlated with the number of viable cells present per well. The metabolite concentration is measured via spectrophotometry, with the absorption value converted to an absolute number that describes cellular growth.

lysyl oxidase = assay: Lysyl oxidase activity in wound-margin biopsies after surgical and xylene injury; format: in vivo, nude mice
Experimental: The dermotrophic effect of GC-100 was also determined using lysyl oxidase levels as an endpoint to determine whether GC-100 can effect the concentration of lysyl oxidase in wounded tissues and to establish whether GC-100 can accelerate the wound healing process using qualitative measurements.
Nude mice were chosen because their skin (and their lack of hair) is more similar to human skin than are other commonly used laboratory test animals. The test population was divided into 4 groups of 10 nude mice for the purpose of examining the best application sequence for GC-100 relative to injury. Group definitions are as follows:
A surgical wound measuring 2.54 cm in length and penetrating the dermis was made on the right hind quarter of all test subjects after appropriate anesthesia was administered.
A second index of injury using 1% xylene was used in all test subjects after creation of the surgical wound. Using a sterile tuberculin syringe, 0.1 mL of a 1% xylene solution was injected subcutaneously into the region of the surgical wound. The final size of the injury measured 25×20 mm^2.
The mice in Groups II, III, and IV were divided randomly after physical and chemical injury into 2 subgroups of 5 mice each for application of either GC-100 0.5% or 1%. Pretreatment for Group II and IV mice was conducted one hour prior to any injury, where GC-100 0.5% and 1% was rubbed into the right hind quarter of the designated mice for 50 cycles using a nylon glove. Post-treatment for mice in Group III and IV with GC-100 0.5% and 1% was conducted immediately after injury.
Wound recovery was determined over 30 days using cutaneous punch biopsies that were taken on post injury day 4, and at the conclusion of weeks 2, 3, and 4 from the wound margins. Biopsy specimens were analyzed for lysyl oxidase activity using a standard assay. Results are shown in Table 3 and FIG. 6, which is a graph showing percent lysyl oxidase as a function of treatment schedule and GC-100 concentration.

tyrosinase = target: T1, tyrosinase (Mus musculus, UniProt P11344); assay: Tyrosinase activity in B16 melanoma cells; format: cell-based
T1 construct: endogenous in cells; host or cells: B16 melanoma cells
T1 sequence (P11344 19-533): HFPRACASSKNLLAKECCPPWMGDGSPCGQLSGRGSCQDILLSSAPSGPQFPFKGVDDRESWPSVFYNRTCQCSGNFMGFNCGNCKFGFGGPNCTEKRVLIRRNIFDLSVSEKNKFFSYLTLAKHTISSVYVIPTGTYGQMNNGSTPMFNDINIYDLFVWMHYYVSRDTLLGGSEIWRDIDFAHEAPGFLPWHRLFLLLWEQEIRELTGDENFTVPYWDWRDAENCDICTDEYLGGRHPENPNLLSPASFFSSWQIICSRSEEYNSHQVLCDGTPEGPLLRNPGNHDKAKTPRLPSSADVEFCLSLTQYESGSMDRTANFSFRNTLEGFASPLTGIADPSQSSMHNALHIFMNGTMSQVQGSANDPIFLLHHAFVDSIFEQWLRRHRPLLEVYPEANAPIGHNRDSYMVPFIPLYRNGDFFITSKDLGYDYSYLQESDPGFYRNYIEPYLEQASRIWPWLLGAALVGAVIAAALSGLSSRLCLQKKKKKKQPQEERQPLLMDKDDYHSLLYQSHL
Experimental: This Example establishes and quantifies the effect of GC-100 on tyrosinase synthesis in B16 melanoma cells.
It has been reported that tyrosinase in synthesized in B16 melanoma cells within 24 hours of plating. On the basis of these reports, B16 melanoma cells were used to evaluate the inhibitory effects of GC-100 on tyrosinase synthesis. As an indication of tyrosinase synthesis, tyrosinase activity in B16 melanoma cells was measured in addition to the amount of melanin synthesized per cell.
B16 melanoma cells (5.0′×10^4) were incubated in a 96-well microplate supplemented with DMEM and 5% fetal calf serum at 37° C. for 24 hours. Incubation was continued for an additional 24 hours at 37° C. in DMEM supplemented with GC-100 at either 250 μg/mL, 500 μg/mL, or 1000 μg/mL. After washing cells with PBS twice, the cells were lysed with 50 μL of phosphate buffer (0.05 mM, pH 6.8) containing 0.1% Triton-X, and incubated at 37° C. for 30 minutes. Then 100 μL of phosphate buffer (0.1 mM, pH 6.8) containing 0.1% DOPA was added to the lysate and incubated at 37° C. for 3 hours. The resultant melanin content and protein content of the lysate were then quantified.
GC-100 selected for examination was quantitatively evaluated regarding its inhibitory activity of melanogenesis in B16 melanoma cells. B16 melanoma cells were seeded into a 60 mm diameter dish at density of 1.5′×10^5 cells/dish and incubated at 37° C. in DMEM supplemented with 10% FCS and 40 mM sodium lactate. After 4 days, the medium was exchanged to DMEM supplemented with 5% FCS and the aforementioned concentrations of GC-100 and cultured at 37° C. The results are shown in Table 5 and FIG. 11, which is a graph showing tyrosinase activity as a function of GC-100 concentration.

Substance: H-Lys-Pro-NH2 [GC-100]
- cytotoxic response (MTT) [1]: does not elicit a cytotoxic response
- % lysyl oxidase (lysyl oxidase; Group II pretreatment, 0.5% GC-100, Day 4): 1.4%
- % lysyl oxidase (lysyl oxidase; Group II pretreatment, 0.5% GC-100, Week 2): 10.2%
- % lysyl oxidase (lysyl oxidase; Group II pretreatment, 0.5% GC-100, Week 3): 13.4%
- % lysyl oxidase (lysyl oxidase; Group II pretreatment, 0.5% GC-100, Week 4): 45.9%
- % lysyl oxidase (lysyl oxidase; Group II pretreatment, 1% GC-100, Day 4): 5.2%
- % lysyl oxidase (lysyl oxidase; Group II pretreatment, 1% GC-100, Week 2): 18.2%
- % lysyl oxidase (lysyl oxidase; Group II pretreatment, 1% GC-100, Week 3): 23.4%
- % lysyl oxidase (lysyl oxidase; Group II pretreatment, 1% GC-100, Week 4): 45.9%
- % lysyl oxidase (lysyl oxidase; Group III post-treatment, 0.5% GC-100, Day 4): 1.2%
- % lysyl oxidase (lysyl oxidase; Group III post-treatment, 0.5% GC-100, Week 2): 3.2%
- % lysyl oxidase (lysyl oxidase; Group III post-treatment, 0.5% GC-100, Week 3): 19.8%
- % lysyl oxidase (lysyl oxidase; Group III post-treatment, 0.5% GC-100, Week 4): 48.7%
- % lysyl oxidase (lysyl oxidase; Group III post-treatment, 1% GC-100, Day 4): 5.3%
- % lysyl oxidase (lysyl oxidase; Group III post-treatment, 1% GC-100, Week 2): 11.5%
- % lysyl oxidase (lysyl oxidase; Group III post-treatment, 1% GC-100, Week 3): 19.7%
- % lysyl oxidase (lysyl oxidase; Group III post-treatment, 1% GC-100, Week 4): 49.6%
- % lysyl oxidase (lysyl oxidase; Group IV pre- & post-treatment, 0.5% GC-100, Day 4): 21%
- % lysyl oxidase (lysyl oxidase; Group IV pre- & post-treatment, 0.5% GC-100, Week 2): 30.1%
- % lysyl oxidase (lysyl oxidase; Group IV pre- & post-treatment, 0.5% GC-100, Week 3): 42.4%
- % lysyl oxidase (lysyl oxidase; Group IV pre- & post-treatment, 0.5% GC-100, Week 4): 52.8%
- % lysyl oxidase (lysyl oxidase; Group IV pre- & post-treatment, 1% GC-100, Day 4): 47.2%
- % lysyl oxidase (lysyl oxidase; Group IV pre- & post-treatment, 1% GC-100, Week 2): 50.5%
- % lysyl oxidase (lysyl oxidase; Group IV pre- & post-treatment, 1% GC-100, Week 3): 58.8%
- % lysyl oxidase (lysyl oxidase; Group IV pre- & post-treatment, 1% GC-100, Week 4): 62.7%
- Tyrosinase activity (% of untreated control) (tyrosinase; GC-100 250 μg/mL): 57.3 ± 12%
- Tyrosinase activity (% of untreated control) (tyrosinase; GC-100 500 μg/mL): 34.1 ± 14%
- Tyrosinase activity (% of untreated control) (tyrosinase; GC-100 1000 μg/mL): 6.6 ± 14.8%
